Test systems include SK-MEL-5; MDA-MB-231; UO-31; NCI/ADR-RES; SF-268; SF-295; HOP-92; OVCAR-5; HL-60; RXF 393; A549; LOX IMVI; T47D; NCI-H460; PC-3; MDA-MB-435; UACC-62; SK-OV-3; COLO 205; HCC 2998.
Common to all, as to experiment: NCI anticancer screen, dose series, 48 h

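Cultured in 96-well plates, cells were exposed to test compound for 48 hours across five concentrations. Abbreviation: GI50, concentration required for 50% inhibition of growth.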 Calls of active or inactive are those of the source. Cut-off read from the data, not from the text of the source: active = GI50 up to about 1.1 µM and inactive = higher.

On to `NC(CCP(=O)(O)O)C(=O)O` (stereo unspecified), for which the GI50 with SK-MEL-5, with MDA-MB-231, in the test on UO-31, with NCI/ADR-RES, with SF-268 and with SF-295 was > 100 µM (inactive) each time. In addition, the GI50 with HOP-92, with OVCAR-5, in the test on HL-60, in the test with RXF 393, with A549 and in the test on LOX IMVI was > 100 µM (inactive) in each case. For the same molecule, the GI50 with T47D, in the test with NCI-H460, in the test with PC-3, with MDA-MB-435 and with UACC-62 was > 100 µM (inactive) throughout.

Turning to `Cc1c(/N=N/c2ccc(Cl)cc2)c(-c2ccccc2)n(C2OC(CO)C(O)C(O)C2O)c(=S)c1C#N` (stereo unspecified), the GI50 in the test with SK-MEL-5 is 13.1 µM (inactive); in the test on MDA-MB-231, 20.3 µM (inactive); in the test on UO-31, 19.8 µM (inactive); in the test with NCI/ADR-RES, 13.6 µM (inactive); in the test on SF-268 it was 22.2 µM (inactive); in the test on SF-295 it was 24.9 µM (inactive). Besides, the GI50 was 14.2 µM (inactive) with HOP-92; 19.2 µM (inactive) with OVCAR-5; 16.9 µM (inactive) in the test on SK-OV-3; 32.6 µM (inactive) with HL-60; 15 µM (inactive) in the test on RXF 393; 21.2 µM (inactive) in the test on COLO 205. Further, the GI50 in the test with A549 is 17.3 µM (inactive); in the test with LOX IMVI it was 18.2 µM (inactive); in the test on T47D, 19.1 µM (inactive); in the test on NCI-H460, 18.8 µM (inactive); in the test on PC-3, 10.6 µM (inactive); in the test with MDA-MB-435, 10.5 µM (inactive). The GI50 in the test on UACC-62 is 13.4 µM (inactive).

`Cc1cc(C)c(-n2c(C)c(C)c(C#N)c2N)c(C)c1`: the GI50 in the test on SK-MEL-5 is 14.9 µM (inactive); in the test with MDA-MB-231 it was 33.6 µM (inactive); with UO-31, 83.2 µM (inactive); in the test with NCI/ADR-RES, 32.3 µM (inactive); in the test with SF-268, 38.6 µM (inactive); in the test with SF-295, 36.4 µM (inactive). Also, the GI50 in the test on HOP-92 is 19 µM (inactive); in the test with OVCAR-5 it was > 100 µM (inactive); in the test on SK-OV-3, 33 µM (inactive); with HL-60, 15.1 µM (inactive); in the test with RXF 393, 22.1 µM (inactive); in the test with COLO 205, 19.7 µM (inactive). Further, the GI50 in the test on A549 was 36.5 µM (inactive); with LOX IMVI, 19.2 µM (inactive); with T47D it was 26.3 µM (inactive); in the test on NCI-H460 it was 22.4 µM (inactive); with PC-3, 25.8 µM (inactive); with MDA-MB-435, 23 µM (inactive).

`NC(=O)c1nnsc1N/N=C/c1ccc([N+](=O)[O-])cc1`: the GI50 in the test on SK-MEL-5 was > 100 µM (inactive); with MDA-MB-231 it was > 100 µM (inactive); with UO-31 it was 77.1 µM (inactive); with NCI/ADR-RES, > 100 µM (inactive); in the test on SF-268 it was > 100 µM (inactive); in the test on SF-295 it was > 100 µM (inactive). For the same molecule, the GI50 was > 100 µM (inactive) in the test on HCC 2998; > 100 µM (inactive) with OVCAR-5; > 100 µM (inactive) in the test on SK-OV-3; 73.5 µM (inactive) with HL-60; > 100 µM (inactive) in the test with RXF 393; > 100 µM (inactive) in the test with COLO 205. Further, the GI50 is > 100 µM (inactive) in the test on A549; > 100 µM (inactive) with LOX IMVI; > 100 µM (inactive) in the test with T47D; > 100 µM (inactive) in the test on NCI-H460; > 100 µM (inactive) in the test on PC-3; 76.9 µM (inactive) with MDA-MB-435. Besides, the GI50 in the test with UACC-62 is > 100 µM (inactive).

For the molecule `Cc1cc(S(=O)(=O)O)ccc1/N=N/c1ccc(/N=N/c2c(O)ccc3ccccc23)c(C)c1`, the GI50 was > 100 µM (inactive) in the test with SK-MEL-5; 20.5 µM (inactive) in the test with MDA-MB-231; 80.4 µM (inactive) with UO-31; > 100 µM (inactive) with NCI/ADR-RES; 55.3 µM (inactive) in the test with SF-268; 94.8 µM (inactive) in the test with SF-295. For the same molecule, the GI50 in the test on HOP-92 is 46.7 µM (inactive); in the test on OVCAR-5 it was > 100 µM (inactive); in the test on SK-OV-3, > 100 µM (inactive); in the test on RXF 393, > 100 µM (inactive); in the test on COLO 205, > 100 µM (inactive); in the test with A549, 50.4 µM (inactive). For the same molecule, the GI50 in the test with LOX IMVI was 26.9 µM (inactive); in the test on T47D it was > 100 µM (inactive); with PC-3, > 100 µM (inactive); with MDA-MB-435, 37.9 µM (inactive); with UACC-62, 28.8 µM (inactive).

As to `OC(c1ccc(F)cc1)C(F)(F)c1nc(-c2ccccc2)no1` (stereo unspecified), the GI50 in the test on MDA-MB-231 was 2.43 µM (inactive); in the test on UO-31, 19 µM (inactive); in the test with NCI/ADR-RES, 30.6 µM (inactive); in the test with SF-268, 25.3 µM (inactive); with HOP-92 it was 23.7 µM (inactive); in the test on OVCAR-5 it was 18.1 µM (inactive). Moreover, the GI50 in the test with HL-60 was 22.5 µM (inactive); in the test on LOX IMVI it was 86.5 µM (inactive); in the test on T47D, 23.7 µM (inactive); in the test with NCI-H460 it was 0.0632 µM (active); with PC-3, 21.8 µM (inactive); in the test on MDA-MB-435, 19.4 µM (inactive). In the test with UACC-62, the GI50 was 18.2 µM (inactive).

Regarding `CCc1n[nH]c(=O)[nH]1`, the GI50 with SK-MEL-5, in the test on MDA-MB-231, in the test on UO-31, in the test with NCI/ADR-RES, in the test with SF-268 and in the test on SF-295 was > 100 µM (inactive) in each case. Also, the GI50 with HCC 2998 was > 100 µM (inactive); in the test on OVCAR-5, > 100 µM (inactive); in the test on SK-OV-3, > 100 µM (inactive); with HL-60, > 10 µM (inactive); in the test on RXF 393, > 100 µM (inactive); in the test with COLO 205, > 100 µM (inactive). The GI50 in the test with A549, in the test with LOX IMVI, in the test with T47D, with NCI-H460, in the test with PC-3 and in the test with MDA-MB-435 was > 100 µM (inactive) throughout. In addition, in the test with UACC-62, the GI50 is > 100 µM (inactive).

Consider `COC(=O)c1c(C)[n+]([O-])c2cc(Cl)c(Cl)cc2[n+]1[O-]`, for which the GI50 was 8.71 µM (inactive) with SK-MEL-5; 19.4 µM (inactive) in the test on MDA-MB-231; 15.8 µM (inactive) with UO-31; 13.9 µM (inactive) with NCI/ADR-RES; 23.4 µM (inactive) in the test with SF-268; 19.6 µM (inactive) in the test on SF-295. The GI50 in the test with HCC 2998 is 16.1 µM (inactive); in the test on OVCAR-5 it was 30.9 µM (inactive); in the test on SK-OV-3, 12.9 µM (inactive); with HL-60 it was 17.7 µM (inactive); with RXF 393, 32.9 µM (inactive); in the test on COLO 205, 12.2 µM (inactive). Moreover, the GI50 is 8.07 µM (inactive) in the test with A549; 8.65 µM (inactive) in the test with LOX IMVI; 15.8 µM (inactive) in the test with T47D; 5.38 µM (inactive) in the test with NCI-H460; 22.4 µM (inactive) in the test with PC-3; 18.6 µM (inactive) in the test on MDA-MB-435. In addition, the GI50 with UACC-62 is 15 µM (inactive).
